How the values were obtained:
[1] = Stability and enolization of pyruvate esters in Ringer's solution (NMR, ultraviolet absorption); format: physicochemical; conditions: for absorbance: 28 mM solution, 300-340 nm; for average absorption, corrected for blanks: 1 mMolar solution, 230-260 nm
Procedure: Specifically, the preferred embodiment of this “pyruvated” Ringer's solution for use in NMR, stability, and subsequent biological studies is shown in Table 2.
Following the procedural recommendations for analysis of Margolis et al. (1986) with respect to scanning times and frequencies on a 400 MHz spectrometer operating in pulse. […] The ultraviolet absorptions of these solutions were also measured periodically over the 230-260 nm range and 300-340 nm span, where changes in enol formation become evident, and provided confirmatory evidence about the distinctly different salvation properties of pyruvate ester analogs in comparison to pyruvate salts applied in the various methods of prior art.
The experimental sequence in which to establish the greater utility of the pyruvate derivatives in this invention follows along the same lines as the comparative spectral experiments just described.
When 28 mM solutions were examined in a similar manner at 300-340 nm, the absorbance of pyruvate remained unchanged before and after calcium addition at a value of 0.03, while the ethyl pyruvate solutions become noticeably straw colored to the naked eye, rising in absorbance from 0.07 to 0.85. The yellow coloration and increases in spectrophotometric absorption in the ultraviolet region confirms the formation of a 1,3-conjugated ketone system, as would result from the enolization of ethylpyruvate under conditions which appear not to enolize pyruvic acid.

[2] = system: ischemia/reperfusion mucosal injury, small intestine; experiment: Rat model of superior mesenteric artery occlusion (ischemia/reperfusion mucosal injury and barrier dysfunction); format: in vivo, male Sprague-Dawley rats; conditions: for mucosal thickness (MT) / villous height (VH): 28 mM infusate, mean ± SEM, n=6; for mucosal permeability (FITC-dextran, everted gut sac): during reperfusion
Procedure: The model system and calculation parameters are illustrated in FIG. 3.
Heart rate and mean arterial blood pressure were measured via a right carotid arterial catheter. The left internal jugular vein was cannulated for intravenous infusions.
Controls (n=6) received lactated Ringer's solution (lactate, […], 111.5 ml/kg/hr infusion, 1.5 ml/kg bolus prior to ischemia, and a 3.0 ml/kg bolus prior to reperfusion). Experimental groups (n=6 each) received similar volumes (3 ml) of either pyruvate, Na salt (28 mM) or pyruvate ethyl ester (28 mM), prepared in accordance with the method of this invention as shown in Table 2 and at a dosage rate equivalent to 10 mg/kg/hr. Small intestinal mucosal-to-serosal permeability (CMS, nl/min/cm^2) of FITC- dextran (mw=4 kDA) was evaluated using an everted gut sac technique as previously described by Wattanasirichaigoon (1999). Permeability was measured at baseline, after 30 and 60 minutes of ischemia ([…]) respectively, and after 30 and 60 minutes of reperfusion (R30 and R60, respectively). Histologic samples at baseline, 160 and R60 were evaluated for villous height (VH, μ) and mucosal thickness (MT, μ). Mucosal injury grade was determined according to the method described by Chiu et al. (1970), scored as in Table 3, as follows:
Data were summarized as means±standard error of the mean. Significances of differences were determined using Student's t-test. Differences were considered significant for p<0.05.

[3] = concentrations of 1 Mol/liter or less, standing for 48 hrs; cited from earlier work
[4] = I60 (after 60 minutes of ischemia)
[5] = R60 (after 60 minutes of reperfusion)

Compound: CCOC(=O)C(C)=O [Ethyl pyruvate (4), ethyl pyruvate]
- absorbance ([1]; after calcium addition): 0.85
- absorbance ([1]; before calcium addition): 0.07
- average absorption, corrected for blanks ([1]; absence of calcium, pH 7.2): 0.2
- average absorption, corrected for blanks ([1]; after addition of calcium): 0.41
- stability of aqueous solution ([1]; in the presence of calcium salts (Ringer's solution)): more stable aqueous solution than sodium pyruvate
- mucosal thickness (MT) ([2]; Baseline): 583 μ
- villous height (VH) ([2]; Baseline): 486 ± 12 μ
- mucosal injury score ([2]; Chiu grade 0-5 (Table 3), FIG. 5): significant diminution
- cytoprotection as judged by the extent of permeability increase ([2]; FIG. 4): significant trend towards effecting earlier and greater cytoprotection
- mucosal thickness (MT) [2, 4]: 466 μ
- villous height (VH) [2, 4]: 381 ± 24 μ
- mucosal thickness (MT) [2, 5]: 352 μ
- villous height (VH) [2, 5]: 296 ± 26 μ
- villous height and mucosal thickness ([2]; during both ischemia and reperfusion, p<0.01): significantly maintained
- mucosal permeability (FITC-dextran, everted gut sac) ([2]; FIG. 4): significantly decreased

Compound: CC(=O)C(=O)[O-].[Na+] [Na Pyruvate (1), sodium pyruvate]
- mucosal permeability (FITC-dextran, everted gut sac) ([2]; FIG. 4): significantly decreased
- dimer (4-hydroxy-4-methyl-2-ketoglutaric acid) formed [3]: 20-25%
- hydrate formed [3]: 6-10%

Compound: CC(=O)C(=O)O [pyruvic acid, reference compound]
- average absorption, corrected for blanks ([1]; absence of calcium, pH 7.2): 0.15

Compound: Lactate [reference compound]
- mucosal thickness (MT) ([2]; Baseline): 553 ± 34 μ
- villous height (VH) ([2]; Baseline): 470 ± 30 μ
- mucosal thickness (MT) [2, 4]: 298 ± 32 μ
- villous height (VH) [2, 4]: 244 ± 20 μ
- mucosal thickness (MT) [2, 5]: 141 ± 22 μ
- villous height (VH) [2, 5]: 130 ± 25 μ

Reference: patent US6846842B2, “Pyruvate ester composition and method of use for resuscitation after events of ischemia and reperfusion” (Beth Israel Deconess Medical Center, Inc., priority 1999, dated 2005)
